From article PMC8413292, “Small-molecule polymerase inhibitor protects non-human primates from measles and reduces shedding” (Nature Communications, 2021)
Values joined by “and” are separate entries in the source; they are usually repeats but may differ in a detail not shown here. Identical values can stand only once.

Experiments:
[1] = tested on: MV/FrankfurtMain.DEU/17.11 (genotype D8); assay: Rectal temperature of MeV-infected squirrel monkeys; assay type: in vivo, squirrel monkeys (Saimiri sciureus); settings: therapeutic (d7); Row 7 (day 21)
Method: All animal experiments were carried out in compliance with the regulations of German animal protection laws and authorized by the Regierungspräsidium Darmstadt, Germany (Dezernat V54 – Veterinärwesen und Verbraucherschutz, Hilpertstrasse 31, 64295 Darmstadt). Adult male and female squirrel monkeys (Saimiri sciureus) were obtained from BioPRIM, 31450 Baziege, or CNRS 0846 Primatologie, 13790 Rousset, France. Each experimental group was housed in a separate room, and animals of the same sex were caged together within the respective groups. For the single-dose pharmacokinetic experiment, animals were anesthetized, and the drug was given through a stomach tube at a concentration of 50 mg/kg bodyweight. Blood samples were collected after 15, 30, and 60 min, and 2, 3, 6, and 24 h. For efficacy assessment, groups of 6 animals were left untreated or treated with 50 mg/kg of ERDRP-0519 twice daily for two weeks, starting either 12 h before or 3 or 7 days after intranasal infection with 10^6 TCID50 of MV/FrankfurtMain.DEU/17.11. Clinical signs, rectal temperature, and weight were recorded daily, and throat swabs and blood samples were collected before infection and twice weekly thereafter. On day 21 post-infection, the animals were euthanized, necropsied, and samples were collected for histological analysis.

[2] = tested on: MV/FrankfurtMain.DEU/17.11 (genotype D8); assay: PBMC-associated viremia titers (limited dilution, TCID50/10^6 PBMCs); assay type: in vivo, squirrel monkeys (Saimiri sciureus); settings: for Viral titers: individual animals
Method: White blood cell counts, viral load quantification in PBMCs, and quantification of neutralizing antibody titers were performed as follows: for white blood cell counts, blood was diluted 1:100 in 3% acetic acid and cells were counted using a Neubauer chamber. For viral load quantification in PBMCs, blood was centrifuged at 3000 rpm for 15 min and serum was frozen at −20 °C until further use. Red blood cell lysis was performed and the remaining PBMCs were counted using a Neubauer chamber. Viral titers in PBMCs were quantified in quadruplicates using limited dilution method and calculated as TCID50/10^6 PBMCs. Neutralizing antibody titers were quantified by incubating MeV with 2-fold serial dilutions of the respective serum for 20 min at room temperature in quadruplicates. Vero/hSLAM cells were added and incubated for 3 days at 37 °C. Neutralizing antibody titers are expressed as the reciprocal of the highest serum dilution showing no signs of infection. For virus titration from throat swabs, swabs were placed in 150 μl DMEM with 3% penicillin/streptomycin and the titer was quantified by limited dilution method.

Structure (SMILES): Cn1nc(C(F)(F)F)cc1C(=O)Nc1ccc(S(=O)(=O)N2CCCC[C@H]2CCN2CCOCC2)cc1 [ERDRP-0519]
- Temperature, group mean (Mean 2) [1]: 39.32
- effect on PBMC-associated virus replication ([2]; day 3 therapeutic administration): effectively suppressed virus replication
- Viral titers ([2]; prophylactic group, day 3): 1.745 log10(TCID50/106 PBMCs)
- Viral titers ([2]; prophylactic group, day 7): 1.509 log10(TCID50/106 PBMCs) and 0 log10(TCID50/106 PBMCs)
- Viral titers ([2]; prophylactic group, day 10): 1.807 log10(TCID50/106 PBMCs)
- Viral titers ([2]; prophylactic group, day 17): 0.7747 log10(TCID50/106 PBMCs)
- Viral titers ([2]; prophylactic group, day 21): 2.352 log10(TCID50/106 PBMCs)
- decrease of viremia titers on average compared to untreated animals ([2]; prophylactic treatment): up to 250 fold
- PBMC Titers, group mean (Mean 2) ([2]; prophylactic, Row 1 (1st of 7 time points)): 0
- PBMC Titers, group mean (Mean 2) ([2]; prophylactic, Row 2 (2nd of 7 time points)): 0.2908
- PBMC Titers, group mean (Mean 2) ([2]; prophylactic, Row 3 (3rd of 7 time points)): 0.2514
- PBMC Titers, group mean (Mean 2) ([2]; prophylactic, Row 4 (4th of 7 time points)): 0.3012
- PBMC Titers, group mean (Mean 2) ([2]; prophylactic, Row 5 (5th of 7 time points)): 0
- PBMC Titers, group mean (Mean 2) ([2]; prophylactic, Row 6 (6th of 7 time points)): 0.1283
- PBMC Titers, group mean (Mean 2) ([2]; prophylactic, Row 7 (7th of 7 time points)): 0.3917
- Viral titers ([2]; therapeutic (d3) group, day 3): 1.097 log10(TCID50/106 PBMCs) and 1.77 log10(TCID50/106 PBMCs)
- Viral titers ([2]; therapeutic (d3) group, day 7): 0.7905 log10(TCID50/106 PBMCs) and 1.004 log10(TCID50/106 PBMCs) and 2.281 log10(TCID50/106 PBMCs) and 0 log10(TCID50/106 PBMCs)
- Viral titers ([2]; therapeutic (d3) group, day 10): 1.35 log10(TCID50/106 PBMCs) and 0.8861 log10(TCID50/106 PBMCs) and 2.045 log10(TCID50/106 PBMCs)
- Viral titers ([2]; therapeutic (d3) group, day 14): 0.7375 log10(TCID50/106 PBMCs)
- PBMC Titers, group mean (Mean 2) ([2]; therapeutic (d3), Row 1 (1st of 7 time points)): 0
- PBMC Titers, group mean (Mean 2) ([2]; therapeutic (d3), Row 2 (2nd of 7 time points)): 0.4783
- PBMC Titers, group mean (Mean 2) ([2]; therapeutic (d3), Row 3 (3rd of 7 time points)): 0.6785
- PBMC Titers, group mean (Mean 2) ([2]; therapeutic (d3), Row 4 (4th of 7 time points)): 0.7141
- PBMC Titers, group mean (Mean 2) ([2]; therapeutic (d3), Row 5 (5th of 7 time points)): 0.1233
- PBMC Titers, group mean (Mean 2) ([2]; therapeutic (d3), Row 6 (6th of 7 time points)): 0
- PBMC Titers, group mean (Mean 2) ([2]; therapeutic (d3), Row 7 (7th of 7 time points)): 0
- Viral titers ([2]; therapeutic (d7) group, day 3): 0.6162 log10(TCID50/106 PBMCs) and 0.7122 log10(TCID50/106 PBMCs) and 0.8794 log10(TCID50/106 PBMCs) and 0.6642 log10(TCID50/106 PBMCs) and 1.712 log10(TCID50/106 PBMCs)
- Viral titers ([2]; therapeutic (d7) group, day 7): 2.108 log10(TCID50/106 PBMCs) (2×) and 1.9431 log10(TCID50/106 PBMCs) and 1.854 log10(TCID50/106 PBMCs) and 1.9914 log10(TCID50/106 PBMCs) and 1.699 log10(TCID50/106 PBMCs)
- Viral titers ([2]; therapeutic (d7) group, day 10): 2.513 log10(TCID50/106 PBMCs) and 2.092 log10(TCID50/106 PBMCs) and 2.1549 log10(TCID50/106 PBMCs) and 2.936 log10(TCID50/106 PBMCs) and 2.626 log10(TCID50/106 PBMCs) and 2.438 log10(TCID50/106 PBMCs)
- Viral titers ([2]; therapeutic (d7) group, day 14): 0.7959 log10(TCID50/106 PBMCs) and 0.3979 log10(TCID50/106 PBMCs) and 1.735 log10(TCID50/106 PBMCs)
- Viral titers ([2]; therapeutic (d7) group, day 17): 1.174 log10(TCID50/106 PBMCs) and 0.6271 log10(TCID50/106 PBMCs)
- PBMC Titers, group mean (Mean 2) ([2]; therapeutic (d7), Row 1 (1st of 7 time points)): 0
- PBMC Titers, group mean (Mean 2) ([2]; therapeutic (d7), Row 2 (2nd of 7 time points)): 0.7636
- PBMC Titers, group mean (Mean 2) ([2]; therapeutic (d7), Row 3 (3rd of 7 time points)): 1.95
- PBMC Titers, group mean (Mean 2) ([2]; therapeutic (d7), Row 4 (4th of 7 time points)): 2.46
- PBMC Titers, group mean (Mean 2) ([2]; therapeutic (d7), Row 5 (5th of 7 time points)): 0.49
- PBMC Titers, group mean (Mean 2) ([2]; therapeutic (d7), Row 6 (6th of 7 time points)): 0.3
- PBMC Titers, group mean (Mean 2) ([2]; therapeutic (d7), Row 7 (7th of 7 time points)): 0
- effect on height of maximum virus load ([2]; treatment initiated at day 7 post-infection, maximum on day 10): no significant effect on the height of maximum virus load
- PBMC Titers, Mean Diff, untreated vs. treated ([2]; untreated vs. prophylactic, Row 1 (1st of 7 time points)): 0
- PBMC Titers, Mean Diff, untreated vs. treated ([2]; untreated vs. prophylactic, Row 2 (2nd of 7 time points)): 0.1201
- PBMC Titers, Mean Diff, untreated vs. treated ([2]; untreated vs. prophylactic, Row 3 (3rd of 7 time points)): 2.622
- PBMC Titers, Mean Diff, untreated vs. treated ([2]; untreated vs. prophylactic, Row 4 (4th of 7 time points)): 1.541
- PBMC Titers, Mean Diff, untreated vs. treated ([2]; untreated vs. prophylactic, Row 5 (5th of 7 time points)): 0.3677
- PBMC Titers, Mean Diff, untreated vs. treated ([2]; untreated vs. prophylactic, Row 6 (6th of 7 time points)): 0.1017
- PBMC Titers, Mean Diff, untreated vs. treated ([2]; untreated vs. prophylactic, Row 7 (7th of 7 time points)): -0.3917
- PBMC Titers, Mean Diff, untreated vs. treated ([2]; untreated vs. therapeutic (d3), Row 1 (1st of 7 time points)): 0
- PBMC Titers, Mean Diff, untreated vs. treated ([2]; untreated vs. therapeutic (d3), Row 2 (2nd of 7 time points)): -0.06733
- PBMC Titers, Mean Diff, untreated vs. treated ([2]; untreated vs. therapeutic (d3), Row 3 (3rd of 7 time points)): 2.195
- PBMC Titers, Mean Diff, untreated vs. treated ([2]; untreated vs. therapeutic (d3), Row 4 (4th of 7 time points)): 1.128
- PBMC Titers, Mean Diff, untreated vs. treated ([2]; untreated vs. therapeutic (d3), Row 5 (5th of 7 time points)): 0.2444
- PBMC Titers, Mean Diff, untreated vs. treated ([2]; untreated vs. therapeutic (d3), Row 6 (6th of 7 time points)): 0.23
- PBMC Titers, Mean Diff, untreated vs. treated ([2]; untreated vs. therapeutic (d3), Row 7 (7th of 7 time points)): 0
- PBMC Titers, Mean Diff, untreated vs. treated ([2]; untreated vs. therapeutic (d7), Row 1 (1st of 7 time points)): 0
- PBMC Titers, Mean Diff, untreated vs. treated ([2]; untreated vs. therapeutic (d7), Row 2 (2nd of 7 time points)): -0.3527
- PBMC Titers, Mean Diff, untreated vs. treated ([2]; untreated vs. therapeutic (d7), Row 3 (3rd of 7 time points)): 0.9232
- PBMC Titers, Mean Diff, untreated vs. treated ([2]; untreated vs. therapeutic (d7), Row 4 (4th of 7 time points)): -0.6175
- PBMC Titers, Mean Diff, untreated vs. treated ([2]; untreated vs. therapeutic (d7), Row 5 (5th of 7 time points)): -0.1223
- PBMC Titers, Mean Diff, untreated vs. treated ([2]; untreated vs. therapeutic (d7), Row 6 (6th of 7 time points)): -0.06996
- PBMC Titers, Mean Diff, untreated vs. treated ([2]; untreated vs. therapeutic (d7), Row 7 (7th of 7 time points)): 0
